Converted amounts (≈) assume the structure as drawn.
test system: Staphylococcus aureus (Isolate ID ATCC 29213); experiment: Bacterial assay: MIC by broth microdilution or agar dilution (CLSI), S. aureus ATCC 29213; type: cell-based; details: S. aureus (ATCC29213)
Protocol: Compounds are tested for antimicrobial activity by susceptibility testing in liquid or on solid media. Minimum inhibitory concentrations (MICs) for compounds against each strain are determined by the broth microdilution or agar dilution method according to the guidelines of the Clinical Laboratories and Standards Institute, formerly the National Committee for Clinical Laboratory Standards (Clinical Laboratories and Standards Institute. Methods for Dilution Antimicrobial Susceptibility Tests for Bacteria That Grow Aerobically; Approved Standard—Seventh Edition. Document M7-A7. CLSI, Wayne, Pa., 2006; Clinical Laboratories and Standards Institute). The bacterial strains tested include S. aureus (Staphylococcus aureus (Isolate ID ATCC 29213)) and an FtsZ mutant of this isolate (FtsZ-G196A Staphylococcus aureus (Isolate ID GG/190723/sa/1.2)). Compound MICs were determined to be in the following activity ranges “A” activity≦0.25 μg/mL; “B” activity>0.25 μg/mL-1.0 μg/mL; “C” activity>1.0 μg/mL-16 μg/mL; “D” activity>16 μg/mL and ND=not determined. The bracketed entries indicate entantiomer(s) and their activity.

For NC(=O)c1c(F)ccc(OC(CC(O)CO)c2nc(-c3ccc(C(F)(F)F)cc3)c(Br)o2)c1F (stereo not shown) [Compound 156, 3-(1-(5-bromo-4-(4-(trifluoromethyl)phenyl)oxazol-2-yl)-3,4-dihydroxybutoxy)-2,6-difluorobenzamide], the “S. aureus MIC (μg/mL) Activity Range” value was “C (activity>1.0 μg/mL-16 μg/mL)”.

same assay, conditions: Staphylococcus aureus, ATCC29213, read-out: S. aureus MIC (μg/mL) Activity Range, S. aureus (ATCC29213)

First: CN1CCN(C(=O)OCC(Oc2ccc(F)c(C(N)=O)c2F)c2nc(-c3ccc(C(F)(F)F)cc3)c(Br)o2)CC1 (stereo not shown) [Compound 178, 2-(5-bromo-4-(4-(trifluoromethyl)phenyl)oxazol-2-yl)-2-(3-carbamoyl-2,4-difluorophenoxy)ethyl 4-methylpiperazine-1-carboxylate]
Second: NCCC(Oc1ccc(F)c(C(N)=O)c1F)c1nc(-c2ccc(C(F)(F)F)cc2)c(Br)o1 (stereo not shown) [Compound 95, 3-(3-amino-1-(5-bromo-4-(4-(trifluoromethyl)phenyl)oxazol-2-yl)propoxy)-2,6-difluorobenzamide]
The MIC of the first is lower: 0.25 to 1 µg/mL (≈ 0.395 to 1.58 µM) for the first, over 16 µg/mL for the second.

First: NC(=O)c1c(F)ccc(OC(CO)c2scc(-c3ccc(Cl)cc3)[n+]2[O-])c1F (stereo not shown) [Compound 267, 2-(1-(3-carbamoyl-2,4-difluorophenoxy)-2-hydroxyethyl)-4-(4-chlorophenyl)thiazole 3-oxide]
Second: CC(Oc1ccc(F)c(C(N)=O)c1F)c1nc(-c2ccc(Cl)cc2)co1 (stereo not shown) [Compound 4]
The MIC of the first is higher: over 16 µg/mL for the first, 1 to 16 µg/mL (≈ 2.64 to 42.2 µM) for the second.

Compared with COc1ccc(-c2nc(C(CO)Oc3ccc(F)c(C(N)=O)c3F)oc2Br)cn1 (stereo not shown) [Compound 230, 3-(1-(5-bromo-4-(6-methoxypyridin-3-yl)oxazol-2-yl)-2-hydroxyethoxy)-2,6-difluorobenzamide], Cc1ccc(-c2nc(C(CO)Oc3ccc(F)c(C(N)=O)c3F)oc2Br)cn1 (stereo not shown) [Compound 231, 3-(1-(5-bromo-4-(6-methylpyridin-3-yl)oxazol-2-yl)-2-hydroxyethoxy)-2,6-difluorobenzamide] is higher in MIC: 1 to 16 µg/mL (≈ 2.13 to 34 µM) for the first, over 16 µg/mL for the second.

COCCOCC(=O)NCC(Oc1ccc(F)c(C(N)=O)c1F)c1nc(-c2ccc(C(F)(F)F)cc2)c(Br)o1 (stereo not shown) [Compound 301, 3-(1-(5-bromo-4-(4-(trifluoromethyl)phenyl)oxazol-2-yl)-2-(2-(2-methoxyethoxy)acetamido)ethoxy)-2,6-difluorobenzamide] and CC(=O)NNC(=O)CCC(Oc1ccc(F)c(C(N)=O)c1F)c1nc(-c2ccc(C(F)(F)F)cc2)c(Br)o1 (stereo not shown) [Compound 92, 3-(4-(2-acetylhydrazinyl)-1-(5-bromo-4-(4-(trifluoromethyl)phenyl)oxazol-2-yl)-4-oxobutoxy)-2,6-difluorobenzamide] fall in the same range of MIC: 1 to 16 µg/mL (≈ 1.61 to 25.7 µM) for the first, 1 to 16 µg/mL (≈ 1.65 to 26.4 µM) for the second.

First: CC(=O)OCC(Oc1ccc(F)c(C(N)=O)c1F)c1nc(-c2ccc(S(C)(=O)=O)cc2)c(Br)o1 (stereo not shown) [Compound 144, 2-(5-bromo-4-(4-(methylsulfonyl)phenyl)oxazol-2-yl)-2-(3-carbamoyl-2,4-difluorophenoxy)ethyl acetate]
Second: COCCOc1ccc(-c2nc(C(CO)Oc3ccc(F)c(C(N)=O)c3F)oc2Br)cc1 (stereo not shown) [Compound 242, 3-(1-(5-bromo-4-(4-(2-methoxyethoxy)phenyl)oxazol-2-yl)-2-hydroxyethoxy)-2,6-difluorobenzamide]
The MIC of the first is higher: over 16 µg/mL for the first, 1 to 16 µg/mL (≈ 1.95 to 31.2 µM) for the second.

First: Cn1ccc(CNC(=O)OCC(Oc2ccc(F)c(C(N)=O)c2F)c2nc(-c3ccc(C(F)(F)F)cc3)c(Br)o2)n1 (stereo not shown) [Compound 193, 2-(5-bromo-4-(4-(trifluoromethyl)phenyl)oxazol-2-yl)-2-(3-carbamoyl-2,4-difluorophenoxy)ethyl ((1-methyl-1H-pyrazol-3-yl)methyl)carbamate]
Second: Cc1cc(CNC(=O)OCC(Oc2ccc(F)c(C(N)=O)c2F)c2nc(-c3ccc(C(F)(F)F)cc3)c(Br)o2)n(C)n1 (stereo not shown) [Compound 212, 2-(5-bromo-4-(4-(trifluoromethyl)phenyl)oxazol-2-yl)-2-(3-carbamoyl-2,4-difluorophenoxy)ethyl ((1,3-dimethyl-1H-pyrazol-5-yl)methyl)carbamate]
The MIC of the first is lower: under 0.25 µg/mL for the first, 0.25 to 1 µg/mL (≈ 0.38 to 1.52 µM) for the second.

First: NC(=O)c1c(F)ccc(O[C@H](CO)c2nc(-c3ccc(OC(F)F)cc3)c(Br)o2)c1F [Compound 273B, (R)-3-(1-(5-bromo-4-(4-(difluoromethoxy)phenyl)oxazol-2-yl)-2-hydroxyethoxy)-2,6-difluorobenzamide]
Second: NC(=O)c1c(F)ccc(OC(CO)c2nc(-c3ccc(C(F)(F)F)cc3)c(Cl)o2)c1F (stereo not shown) [Compound 44, 3-(1-(5-chloro-4-(4-(trifluoromethyl)phenyl)oxazol-2-yl)-2-hydroxyethoxy)-2,6-difluorobenzamide]
The MIC of the first is lower: under 0.25 µg/mL for the first, 0.25 to 1 µg/mL (≈ 0.54 to 2.16 µM) for the second.

First: C[C@@H](Oc1cccc(C(N)=O)c1F)c1nc(-c2ccc(C(F)(F)F)cc2)c(Br)o1 [Compound 299]
Second: CC(Oc1ccc(F)c(C(N)=O)c1F)c1nc(-c2ccc(C(F)(F)F)cc2)c(Cl)o1 (stereo not shown) [Compound 32]
The MIC of the first is higher: 1 to 16 µg/mL (≈ 2.11 to 33.8 µM) for the first, 0.25 to 1 µg/mL (≈ 0.56 to 2.24 µM) for the second.

First: Cc1nccn1CCNC(=O)OCC(Oc1ccc(F)c(C(N)=O)c1F)c1nc(-c2ccc(C(F)(F)F)cc2)c(Br)o1 (stereo not shown) [Compound 190, 2-(5-bromo-4-(4-(trifluoromethyl)phenyl)oxazol-2-yl)-2-(3-carbamoyl-2,4-difluorophenoxy)ethyl (2-(2-methyl-1H-imidazol-1-yl)ethyl)carbamate]
Second: COc1ccc(CNC(=O)OCC(Oc2ccc(F)c(C(N)=O)c2F)c2nc(-c3ccc(C(F)(F)F)cc3)c(Br)o2)cn1 (stereo not shown) [Compound 208, 2-(5-bromo-4-(4-(trifluoromethyl)phenyl)oxazol-2-yl)-2-(3-carbamoyl-2,4-difluorophenoxy)ethyl ((6-methoxypyridin-3-yl)methyl)carbamate]
The MIC of the first is higher: 1 to 16 µg/mL (≈ 1.52 to 24.3 µM) for the first, 0.25 to 1 µg/mL (≈ 0.372 to 1.49 µM) for the second.

CCCCc1oc(C(CO)Oc2ccc(F)c(C(N)=O)c2F)nc1-c1ccc(C(F)(F)F)cc1 (stereo not shown) [Compound 277, 3-(1-(5-butyl-4-(4-(trifluoromethyl)phenyl)oxazol-2-yl)-2-hydroxyethoxy)-2,6-difluorobenzamide] and NC(=O)c1c(F)ccc(O[C@H](CO)c2nc(-c3ccc(C(F)(F)F)cc3)co2)c1F [Compound 272B, (R)-2,6-difluoro-3-(2-hydroxy-1-(4-(4-(trifluoromethyl)phenyl)oxazol-2-yl)ethoxy)benzamide] fall in the same range of MIC: 1 to 16 µg/mL (≈ 2.06 to 33 µM) for the first, 1 to 16 µg/mL (≈ 2.33 to 37.4 µM) for the second.

CN(C)CCC(Oc1ccc(F)c(C(N)=O)c1F)c1nc(-c2ccc(C(F)(F)F)cc2)c(Br)o1 (stereo not shown) [Compound 98, 3-(1-(5-bromo-4-(4-(trifluoromethyl)phenyl)oxazol-2-yl)-3-(dimethylamino)propoxy)-2,6-difluorobenzamide] and C=CC(Oc1ccc(F)c(C(N)=O)c1F)c1nc(-c2ccc(C(F)(F)F)cc2)c(Br)o1 (stereo not shown) [Compound 102, 3-((1-(5-bromo-4-(4-(trifluoromethyl)phenyl)oxazol-2-yl)allyl)oxy)-2,6-difluorobenzamide] fall in the same range of MIC: 1 to 16 µg/mL (≈ 1.82 to 29.2 µM) for the first, 1 to 16 µg/mL (≈ 1.99 to 31.8 µM) for the second.

First: CN1CCN(C(=O)C(Oc2ccc(F)c(C(N)=O)c2F)c2nc(-c3ccc(Cl)cc3)cs2)CC1 (stereo not shown) [Compound 41, 3-(1-(4-(4-chlorophenyl)thiazol-2-yl)-2-(4-methylpiperazin-1-yl)-2-oxoethoxy)-2,6-difluorobenzamide]
Second: CNCC(=O)OCC(Oc1ccc(F)c(C(N)=O)c1F)c1nc(-c2ccc(Cl)cc2)c(Cl)o1 (stereo not shown) [Compound 59, 2-(3-carbamoyl-2,4-difluorophenoxy)-2-(5-chloro-4-(4-chlorophenyl)oxazol-2-yl)ethyl 2-(methylamino)acetate]
The MIC of the first is higher: 1 to 16 µg/mL (≈ 1.97 to 31.6 µM) for the first, 0.25 to 1 µg/mL (≈ 0.5 to 2 µM) for the second.

First: CCOc1ncc(-c2csc(C(C)Oc3ccc(F)c(C(N)=O)c3F)n2)s1 (stereo not shown) [Compound 14]
Second: CCOc1cc2nc(C(C)Oc3ccc(F)c(C(N)=O)c3F)sc2nc1Br (stereo not shown) [Compound 25, 3-(1-(5-bromo-6-ethoxythiazolo[5,4-b]pyridin-2-yl)ethoxy)-2,6-difluorobenzamide]
The MIC of the first is lower: under 0.25 µg/mL for the first, 0.25 to 1 µg/mL (≈ 0.546 to 2.18 µM) for the second.

First: Cc1cc(Cl)ccc1-c1nc(C(CO)Oc2ccc(F)c(C(N)=O)c2F)oc1Br (stereo not shown) [Compound 239, 3-(1-(5-bromo-4-(4-chloro-2-methylphenyl)oxazol-2-yl)-2-hydroxyethoxy)-2,6-difluorobenzamide]
Second: NC(=O)c1c(F)ccc(OC(CO)c2nc(-c3ccc(Br)s3)c(Br)o2)c1F (stereo not shown) [Compound 237, 3-(1-(5-bromo-4-(5-bromothiophen-2-yl)oxazol-2-yl)-2-hydroxyethoxy)-2,6-difluorobenzamide]
The MIC of the first is lower: under 0.25 µg/mL for the first, 0.25 to 1 µg/mL (≈ 0.477 to 1.91 µM) for the second.

NC(=O)c1c(F)ccc(O[C@H](CO)c2nc(-c3ccc(F)cc3)co2)c1F [Compound 278B, (R)-2,6-difluoro-3-(1-(4-(4-fluorophenyl)oxazol-2-yl)-2-hydroxyethoxy)benzamide] and NC(=O)c1c(F)ccc(OC(CO)c2nc(-c3ccc(Cl)c(F)c3)co2)c1F (stereo not shown) [Compound 222, 3-(1-(4-(4-chloro-3-fluorophenyl)oxazol-2-yl)-2-hydroxyethoxy)-2,6-difluorobenzamide] cannot be ordered by MIC: over 16 µg/mL for the first, over 16 µg/mL for the second.

First: NC(=O)c1c(F)ccc(OC(COC(=O)Nc2ccncc2)c2nc(-c3ccc(C(F)(F)F)cc3)c(Br)o2)c1F (stereo not shown) [Compound 176, 2-(5-bromo-4-(4-(trifluoromethyl)phenyl)oxazol-2-yl)-2-(3-carbamoyl-2,4-difluorophenoxy)ethyl pyridin-4-ylcarbamate]
Second: NC(=O)c1c(F)ccc(OC(c2cccnc2)c2nc(-c3ccc(Cl)cc3)c(Br)o2)c1F (stereo not shown) [Compound 99, 3-((5-bromo-4-(4-chlorophenyl)oxazol-2-yl)(pyridin-3-yl)methoxy)-2,6-difluorobenzamide]
The MIC of the first is lower: 0.25 to 1 µg/mL (≈ 0.399 to 1.59 µM) for the first, 1 to 16 µg/mL (≈ 1.92 to 30.7 µM) for the second.

Work on NC(=O)c1c(F)ccc(O[C@H](CO)c2nc(-c3ccc(C(=O)N4CCOCC4)cc3)c(Br)o2)c1F [Compound 255B, (R)-3-(1-(5-bromo-4-(4-(morpholine-4-carbonyl)phenyl)oxazol-2-yl)-2-hydroxyethoxy)-2,6-difluorobenzamide] yielded an MIC of over 16 µg/mL.

From patent US9511073B2, “Aromatic amides and uses thereof” (TAXIS Pharmaceuticals, Inc., priority 2011, dated 2016)
